The values below come from patent US20200239398A1, “METHYLENE-CYCLOALKYLACETATE DERIVATIVES AND THEIR USE IN TREATMENT OF NEUROTROPIC CONDITIONS” (Yissum Research Development Company of The Hebrew …, priority 2018, published 2020).

Like-named read-outs stand apart in the source and are kept apart here.

One test deals with PC12 cells. Briefly: Additive neurotropic effect between HU-MCA-13 and NGF, PC12 neurite outgrowth. The format is cell-based, rat. The protocol: PC12 cells were cultured in T-200 flasks in high glucose (4.5 gr/L) DMEM medium supplemented with 7% FCS, 7% horse serum and 1% penicillin and streptomycin. Cells will be maintained at 37° C. in a humidified incubator containing 6% CO2. All experiments were carried out in a GLP clean room, according to ISO 7 requirements (10,000 particles/m^3). For neurotropic experiments, tissue culture Falcon plates were coated with 200 μg/ml collagen type 1 and placed under UV light for 30 minutes for sterilization. Thereafter, one ml of PC12 cell suspension (5000 cells/well) was applied in 12 or 24 well plate, respectively. The cultures were maintained in the incubator two days before exposure to investigated compound. Each neurotropic experiment contained two controls. The first consisted of untreated cells (negative control), representing the random effect: “noise signal”—the ability of cells to spontaneously grow neurite outgrowth which in seven days are of a length less than two-fold cell diameter. Also, negative controls consisted of cultures treated with 1% DMSO, solvent used to solubilize HU-MCA-13. The positive controls represented neuronal cultures treated with 50 ng/ml NGF, indicating maximal neurite outgrowth that can be achieved in this model. The experimental group consisted of PC12 cells treated with 10 μM HU-MCA-13. In each experiment, after two and seven days, six cultures will be evaluated for neurotropic effect. These consecutive observations allow measurement of the progress of neurite outgrowth elongation and the percentage of cells with neurites (Katzir et al. A quantitative bioassay for nerve growth factor, using PC12 clones expressing different levels of trkA receptors. J Mol Neurosci. 2002; 18(3):251-64). In order to assess neurotropic effect, the neurite outgrowth length in each culture was quantified. For this purpose, each culture was placed under an inverted microscope and photographed by the attached camera. Each well was photographed at three to five representative areas. After acquiring the photos, they were analyzed by ImageJ, NIH software. The neurite outgrowth was estimated by fractal dimension (Df), a statistical parameter that describes the fractional space (area and length) filled by neurite outgrowth. Df ranged from 0 to 1.20. This method estimated the amount of picsels covered by neurites/cells compared to empty space per square field, and therefore plotting log(number of square boxes) vs. log(size in pixels) relationship generated a linear curve with Df representing the slope of the curve. Every photograph that was taken, was opened in a Photoshop software and a new layer was generated on it. Using a 5-pixel wide digital pencil tool, all the outgrowths were marked and the layer with the markers (outgrowth network) were saved in a 0-255 gray scale. Thereafter, the saved layer was opened by ImageJ NIH software.
Using an established PC12 neurotropic in vitro assay, the regenerative enhancing effect of HU-MCA-13 when applied concomitantly, together with NGF, a known neurotrophin was investigated. […] NGF alone, as positive control, at the conventional dose of 50 ng/ml enhanced neurite outgrowth to a Df value of 0.54 at 2 days and 0.4 at 7 days of treatment (FIG. 5). To verify a possible additive effect, the cultures with a mixture of low dose NGF (1 ng/ml generating 10% neurite outgrowth=Df of 0.05) and 1 μM HU-MCA-13 generating about 10-15% neurite outgrowth=Df of 0.04) were tested and found after 2 days a Df of 0.85 and after 7 days a Df of 0.38. NGF is released by hematopoietic cells during polyneuropathy inflammatory process, this finding further strength the possibility of a potential enhancement regenerative effect of this drug upon in vivo therapy.

The test system of test [1] is spinal cord motor neurons. Briefly: Neurite outgrowth in adult rat spinal cord primary cultures. The format is cell-based. Particulars: 10 μM HU-MCA-13 for 7 days. The procedure: To study the effect of HU-MCA-13 on adult rat spinal cord primary cultures in vitro, a purification procedure was developed that yields highly enriched motor neurons cultures. Spinal cord motor neuron cultures are an important tool for the study of mechanisms involved in motor neuron survival, degeneration and regeneration, motor neuron disorders such as amyotrophic lateral sclerosis or spinal muscular atrophy as well as in spinal cord injury. This bioassay was performed using vehicle (1% DMSO) DMEM negative control and 10 μM HU-MCA-13, tested compound. Briefly, dissected pieces of adult rat spinal cord tissue were maintained in phosphate-buffered saline (PBS) without Ca^2+ and Mg^2+ and pooled together and transferred to an enzymatic dissociation media containing 20 IU/ml papain in Earle's balanced salt solution (Worthington Biochemical, Freehold, N.J.) and incubated for 30 min at 37° C. After enzymatic dissociation, the papain solution was aspirated and the tissue was mechanically triturated with a fire-polished Pasteur pipette in complete media [Neurobasal Medium with B-27 supplement (Gibco, Grand Island, N.Y.), 100 IU/ml penicillin, […], 3.3 μg/ml aphidicolin, 0.5 mM glutamate] containing 2000 IU/ml DNase and 10-mg/ml protease inhibitors. Single-cell suspensions in complete media was plated on pre-coated collagen IV/laminin mixture-coated 96-well plates (Becton-Dickinson, Bedford, Mass.) at a density of 1.0×10^4 cells/well. The spinal cord motor neurons (red arrows) and accessory Schwann cells (orange) were maintained for one day in culture and then exposed to 1% DMSO-DMEM negative control or 10 μM HU-MCA-13 for 7 days. The cultures were photographed, and Image analysis was performed. Neurite outgrowth was measured and quantified as for PC12 cultures, focusing on two parameters: a. SUM-total area covered by neurite outgrowths; b. mean length of a neurite (microns).

The target in test [2] is Adrenergic Receptor β2 (ADRB2) (Homo sapiens, UniProt P07550). Briefly: SAFETYscan ADRB2 cAMP. It is filed as cell-based. Particulars: 10 μM HU-MCA-13, read-out: Maximal Response.
Sequence of Adrenergic Receptor β2 (ADRB2) (P07550 whole entry): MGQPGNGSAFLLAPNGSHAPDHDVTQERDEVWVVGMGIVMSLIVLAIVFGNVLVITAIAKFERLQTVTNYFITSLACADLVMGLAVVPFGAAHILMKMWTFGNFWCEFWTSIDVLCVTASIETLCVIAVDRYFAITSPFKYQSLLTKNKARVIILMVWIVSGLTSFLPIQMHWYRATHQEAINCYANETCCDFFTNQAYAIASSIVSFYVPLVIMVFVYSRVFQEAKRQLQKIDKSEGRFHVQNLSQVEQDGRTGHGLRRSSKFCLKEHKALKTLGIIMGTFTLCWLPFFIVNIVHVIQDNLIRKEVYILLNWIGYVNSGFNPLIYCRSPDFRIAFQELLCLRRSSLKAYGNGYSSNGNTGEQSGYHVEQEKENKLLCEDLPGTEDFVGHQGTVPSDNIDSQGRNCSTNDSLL
Test [3] concerns the target Muscarinic acetylcholine Receptor M2 (CHRM2) (Homo sapiens, UniProt P08172). Nature of the test: SAFETYscan CHRM2 cAMP. The format is cell-based. Particulars: 10 μM HU-MCA-13, read-out: Maximal Response.
The target of test [4] is Dopamine Receptor D2 (DRD2S) (Homo sapiens, UniProt P14416). Nature of the test: SAFETYscan DRD2S cAMP. It is filed as cell-based. The settings on record: 10 μM HU-MCA-13.
Sequence of Dopamine Receptor D2 (DRD2S) (P14416 1-414 isoform P14416-2): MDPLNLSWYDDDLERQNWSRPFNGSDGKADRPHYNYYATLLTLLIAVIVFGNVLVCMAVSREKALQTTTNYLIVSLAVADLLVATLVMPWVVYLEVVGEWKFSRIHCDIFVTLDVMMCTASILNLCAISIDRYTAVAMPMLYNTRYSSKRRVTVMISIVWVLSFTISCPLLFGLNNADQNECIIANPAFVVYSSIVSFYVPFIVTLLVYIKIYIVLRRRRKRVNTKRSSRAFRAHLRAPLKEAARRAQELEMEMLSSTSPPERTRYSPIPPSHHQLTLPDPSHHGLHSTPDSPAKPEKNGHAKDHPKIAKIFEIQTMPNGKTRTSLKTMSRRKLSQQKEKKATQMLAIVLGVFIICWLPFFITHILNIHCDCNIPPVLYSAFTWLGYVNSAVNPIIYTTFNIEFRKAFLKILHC
The target in test [5] is Opioid Receptor Kappa 1 (OPRK1) (Homo sapiens, UniProt P41145). Briefly: SAFETYscan OPRK1 cAMP. It is filed as cell-based. Particulars: 10 μM HU-MCA-13, read-out: Maximal Response.
Sequence of Opioid Receptor Kappa 1 (OPRK1) (P41145 whole entry): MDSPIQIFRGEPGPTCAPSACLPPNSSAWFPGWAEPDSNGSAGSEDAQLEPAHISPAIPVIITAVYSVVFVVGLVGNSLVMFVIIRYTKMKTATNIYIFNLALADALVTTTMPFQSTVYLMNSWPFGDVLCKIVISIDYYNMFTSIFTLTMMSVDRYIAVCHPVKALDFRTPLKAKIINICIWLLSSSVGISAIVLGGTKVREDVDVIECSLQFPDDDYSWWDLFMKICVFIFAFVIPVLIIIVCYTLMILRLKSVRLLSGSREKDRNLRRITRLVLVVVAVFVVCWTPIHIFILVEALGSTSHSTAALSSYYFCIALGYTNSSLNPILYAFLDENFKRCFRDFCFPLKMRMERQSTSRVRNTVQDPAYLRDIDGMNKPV
In test [6] the target is T1, A tetrodotoxin-resistant voltage-gated sodium channel (NAVI1.5) (Homo sapiens, UniProt Q14524).
T1 construct: DiscoverX (SAFETYscan contract panel)
Nature of the test: cell-based. The settings on record: read-out: Maximal Response.

The target of test [7] is T2, Acetylcholinesterase (AChE) (Homo sapiens, UniProt P22303).
T2 construct: DiscoverX (SAFETYscan contract panel)
T2 sequence (P22303 32-614): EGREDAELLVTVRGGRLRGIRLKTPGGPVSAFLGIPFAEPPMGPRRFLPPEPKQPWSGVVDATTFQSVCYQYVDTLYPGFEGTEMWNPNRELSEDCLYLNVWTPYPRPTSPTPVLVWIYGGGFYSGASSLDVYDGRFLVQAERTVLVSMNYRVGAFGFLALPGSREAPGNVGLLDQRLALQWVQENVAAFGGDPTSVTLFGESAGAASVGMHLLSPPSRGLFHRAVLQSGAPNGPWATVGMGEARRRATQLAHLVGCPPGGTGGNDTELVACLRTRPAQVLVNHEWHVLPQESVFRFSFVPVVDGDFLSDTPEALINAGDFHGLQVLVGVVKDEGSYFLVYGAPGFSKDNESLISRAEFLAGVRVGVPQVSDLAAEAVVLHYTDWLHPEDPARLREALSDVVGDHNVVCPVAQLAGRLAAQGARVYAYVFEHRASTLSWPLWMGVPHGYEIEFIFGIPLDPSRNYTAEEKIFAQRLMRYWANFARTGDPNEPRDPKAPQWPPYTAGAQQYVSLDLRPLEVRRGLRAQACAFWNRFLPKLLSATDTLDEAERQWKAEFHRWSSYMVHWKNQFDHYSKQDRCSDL
Briefly: SAFETYscan AChE Enzymatic. It is filed as biochemical. The settings on record: Inhibitor mode; 10 μM HU-MCA-13; read-out: Maximal Response.

Sequence of Muscarinic acetylcholine Receptor M2 (CHRM2) (P08172 whole entry): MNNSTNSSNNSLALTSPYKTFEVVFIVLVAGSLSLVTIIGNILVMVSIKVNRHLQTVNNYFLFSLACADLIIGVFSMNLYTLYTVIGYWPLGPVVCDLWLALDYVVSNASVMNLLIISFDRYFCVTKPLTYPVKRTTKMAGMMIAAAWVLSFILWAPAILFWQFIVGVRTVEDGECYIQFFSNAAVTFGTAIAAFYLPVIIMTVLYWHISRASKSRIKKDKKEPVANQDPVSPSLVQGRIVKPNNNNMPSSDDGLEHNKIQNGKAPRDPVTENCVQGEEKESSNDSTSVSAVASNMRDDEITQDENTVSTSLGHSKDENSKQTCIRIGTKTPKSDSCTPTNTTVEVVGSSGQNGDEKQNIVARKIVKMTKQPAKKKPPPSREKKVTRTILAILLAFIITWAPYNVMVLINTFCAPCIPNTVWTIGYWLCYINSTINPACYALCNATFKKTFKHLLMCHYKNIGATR

As to `C=CCC1CCC[C@@H](CCC(=O)O)C1=C` (some centres unmarked) [Compound 13], the neurite outgrowth with PC12 cells (1 μM HU-MCA-13) was 10-15%. The “neurite outgrowth Df” value in the test with PC12 cells (1 μM HU-MCA-13) came out at 0.04; in the test on PC12 cells (HU-MCA-13 alone at 10 μM, 2 days) it was 0.36; with PC12 cells (HU-MCA-13 alone at 10 μM, 7 days), 0.30. In test [1], the “mean length of the neurite” value amounted to 350 micrometer. Moreover, the “neurotropic effect versus control medium” value in test [1] is reported as “four folds neurotropic effect”. Further, the “total (SUM) neurite length” value in test [1] is 600 micrometer. Also, the Emax worked out at 1.29% in test [2] (Agonist mode); 8.23% in test [2] (Antagonist mode); 11.7% in test [3] (Agonist mode); 0% in test [3] (Antagonist mode); 0% in test [4] (read-out: Maximal Response, Agonist mode); 0.51% in test [4] (read-out: Maximal Response, Antagonist mode). Besides, the Emax is 7.89% in test [5] (Agonist mode), 0% in test [5] (Antagonist mode), 0% in test [6] and 4.27% in test [7].
